Consider 68 molecules from ChEMBL document CHEMBL5729675, “Sulfonamide compound or salt thereof” (2023).

In this test the target is Ribonucleotide reductase (Homo sapiens, UniProt P23921+Q7LG56). Description: Human RNR Inhibition Effect: The inhibitory activity against the ribonucleotide reduction reaction (hereinafter referred to as RNR reaction) of the test compound was determined by measuring the formation of deoxycytidine diphosphate (hereinafter referred to as dCDP) from cytidine diphosphate (hereinafter referred to as CDP) by the following method.Human M1 subunit and human M2 subunit (mutant ….
Sequence of Ribonucleotide reductase (P23921 whole entry, looked up): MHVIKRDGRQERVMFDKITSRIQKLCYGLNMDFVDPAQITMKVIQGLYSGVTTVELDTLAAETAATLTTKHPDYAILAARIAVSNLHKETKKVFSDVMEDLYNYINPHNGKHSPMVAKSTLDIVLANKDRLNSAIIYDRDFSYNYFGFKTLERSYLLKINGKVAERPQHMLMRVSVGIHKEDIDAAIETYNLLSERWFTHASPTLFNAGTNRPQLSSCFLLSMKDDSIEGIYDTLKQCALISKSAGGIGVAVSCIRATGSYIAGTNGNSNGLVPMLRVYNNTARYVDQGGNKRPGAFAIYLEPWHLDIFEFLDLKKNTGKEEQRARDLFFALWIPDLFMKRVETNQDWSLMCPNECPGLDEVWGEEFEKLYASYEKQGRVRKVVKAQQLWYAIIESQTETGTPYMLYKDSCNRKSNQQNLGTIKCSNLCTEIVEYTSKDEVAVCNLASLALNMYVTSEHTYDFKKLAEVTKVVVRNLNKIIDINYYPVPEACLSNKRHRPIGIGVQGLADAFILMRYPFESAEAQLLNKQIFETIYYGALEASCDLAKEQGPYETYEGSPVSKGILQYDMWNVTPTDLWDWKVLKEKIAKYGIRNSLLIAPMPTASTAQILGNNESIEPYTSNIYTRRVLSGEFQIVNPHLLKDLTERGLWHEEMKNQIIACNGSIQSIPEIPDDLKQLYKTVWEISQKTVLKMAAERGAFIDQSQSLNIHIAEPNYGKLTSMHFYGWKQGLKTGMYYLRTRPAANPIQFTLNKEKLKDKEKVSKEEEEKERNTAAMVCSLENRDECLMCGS
Sequence of Ribonucleotide reductase (Q7LG56 whole entry, looked up): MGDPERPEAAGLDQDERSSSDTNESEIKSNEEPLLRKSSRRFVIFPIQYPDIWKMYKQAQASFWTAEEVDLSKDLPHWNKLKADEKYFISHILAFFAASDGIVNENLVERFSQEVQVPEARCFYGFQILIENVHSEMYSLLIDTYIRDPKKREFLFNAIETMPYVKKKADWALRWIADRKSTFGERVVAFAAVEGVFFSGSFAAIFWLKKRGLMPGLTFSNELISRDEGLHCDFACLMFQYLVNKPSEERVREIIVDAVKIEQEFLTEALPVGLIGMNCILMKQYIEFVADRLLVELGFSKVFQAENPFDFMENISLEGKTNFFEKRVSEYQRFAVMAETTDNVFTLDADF
A word on the IC50: it is the concentration at which inhibition is half-maximal. Low readings indicate greater potency, high ones weaker potency. With `CCc1ccc(F)c([C@@H](C)[C@H](NS(=O)(=O)c2ccc(Cl)c(C(C)O)c2OC)c2n[nH]c(=O)o2)c1C` (stereo partly drawn), the midpoint of inhibition, the IC50, lay at 150 nM. With `Cc1ccc(F)c([C@@H](C)[C@H](NS(=O)(=O)c2ccc3c(c2)C(=O)CCO3)c2n[nH]c(=O)o2)c1C`, the IC50 turned out to be 280 nM. Regarding `COc1c(S(=O)(=O)N[C@H](c2n[nH]c(=O)o2)[C@H](C)c2cccc(C)c2C)ccc(Cl)c1C(C)O` (stereo partly drawn), the IC50 came out at 180 nM. This IC50 is about 1.6-fold lower than that of the molecule before. With `COc1cc(N)ccc1S(=O)(=O)N[C@H](c1n[nH]c(=O)o1)[C@H](C)c1cccc2c1CCC2`, half-maximal inhibition (IC50) was put at 730 nM. Then `Cc1ccc(F)c([C@@H](C)[C@H](NS(=O)(=O)c2ncc(Br)cc2C(N)=O)c2n[nH]c(=O)o2)c1C`, with 20 nM; and `COc1c(S(=O)(=O)N[C@H](c2n[nH]c(=O)o2)[C@H](C)c2c(F)ccc(C)c2C)ccc(Cl)c1C(C)(C)OC(C)=O`, with 430 nM; and `Cc1ccc(F)c([C@@H](C)[C@H](NS(=O)(=O)c2cccc3c2OCCO3)c2n[nH]c(=O)o2)c1C`, with 330 nM.

In the case of `Cc1ccc(F)c([C@@H](C)[C@H](NS(=O)(=O)c2cccc3c2OCCN3C(=O)C2CC2)c2n[nH]c(=O)o2)c1C`, the IC50 was found to be 290 nM. Molecule `Cc1c(F)ccc(F)c1[C@@H](C)[C@H](NS(=O)(=O)c1ccc(Cl)cc1C(N)=O)c1n[nH]c(=O)o1` gave an IC50 of 500 nM. On to `Cc1ccc(F)c([C@@H](C)[C@H](NS(=O)(=O)c2cc(F)c(Cl)cc2C(=O)O)c2n[nH]c(=O)o2)c1C`, for which it took 960 nM to reach half-maximal inhibition (IC50). `Cc1ccc(F)c([C@@H](C)[C@H](NS(=O)(=O)c2ccc(Cl)c3c2OCCC3=O)c2n[nH]c(=O)o2)c1C` gave an IC50 of 150 nM. This IC50 lies about 6.4-fold lower than the previous one. For `Cc1ccc(F)c([C@@H](C)[C@H](NS(=O)(=O)c2cccc3c2CCNC3)c2n[nH]c(=O)o2)c1C` the value was 760 nM; for `Cc1ccc(F)c([C@@H](C)[C@H](NS(=O)(=O)c2ccc(Cl)c(C(=O)O)n2)c2n[nH]c(=O)o2)c1C`, 190 nM; for `Cc1c(Cl)ccc(F)c1[C@@H](C)[C@H](NS(=O)(=O)c1ncc(Br)cc1C(N)=O)c1n[nH]c(=O)o1`, 70 nM. Turning to `COc1cc(C(N)=O)c(S(=O)(=O)N[C@H](c2n[nH]c(=O)o2)[C@H](C)c2c(F)ccc(C)c2C)cc1OC`, the IC50 amounted to 360 nM. `Cc1ccc(F)c([C@@H](C)[C@H](NS(=O)(=O)c2ccc(Cl)cc2C(=O)NCCO)c2n[nH]c(=O)o2)c1C`: the IC50 turned out to be 270 nM. This IC50 and that of the molecule before are within 1.5-fold of each other. Consider `COc1c(S(=O)(=O)N[C@H](c2n[nH]c(=O)o2)[C@H](C)c2c(F)ccc3ccccc23)ccc(Cl)c1C(C)O` (stereo partly drawn), for which the IC50 is 80 nM. In the case of `Cc1ccc(F)c([C@@H](C)[C@H](NS(=O)(=O)c2ccc(Cl)cc2OC(F)F)c2n[nH]c(=O)o2)c1C`, half-maximal inhibition (IC50) required 260 nM. Take `C[C@H](c1cccc2c1CCC2)[C@H](NS(=O)(=O)c1ccc(F)c(C(C)(C)O)c1F)c1n[nH]c(=O)o1`: the IC50 is 550 nM. This IC50 lies about 2.1-fold higher than the previous one. As to `C[C@H](c1cccc2c1CCC2)[C@H](NS(=O)(=O)c1ccc(Br)c(C(C)(C)O)c1)c1n[nH]c(=O)o1`, inhibition was half-maximal at 640 nM (IC50). Then `COc1cc(Cl)ccc1S(=O)(=O)N[C@H](c1n[nH]c(=O)o1)[C@H](C)c1cccc(C)c1C(C)C`, with 840 nM; and `Cc1ccc(F)c([C@@H](C)[C@H](NS(=O)(=O)c2ccc(Cl)c3c2OCC(=O)N3CC(F)F)c2n[nH]c(=O)o2)c1C`, with 130 nM. As for `COc1cc(Cl)ccc1S(=O)(=O)N[C@H](c1n[nH]c(=O)o1)[C@H](C)c1c(F)ccc(-c2cc(F)cc(F)c2)c1C`, it took 940 nM to reach half-maximal inhibition (IC50). Take `Cc1c(Br)ccc(F)c1[C@@H](C)[C@H](NS(=O)(=O)c1ccc(Br)cc1C(N)=O)c1n[nH]c(=O)o1`: the IC50 amounted to 130 nM. With `Cc1ccc(F)c([C@@H](C)[C@H](NS(=O)(=O)c2ccc(Br)cc2C(N)=O)c2n[nH]c(=S)o2)c1C`, inhibition was half-maximal at 130 nM (IC50). Then `Cc1ccc(F)c([C@@H](C)[C@@H](c2n[nH]c(=O)o2)N(C)S(=O)(=O)c2ccc(Cl)cc2C(N)=O)c1C`, with 80 nM; and `Cc1ccc(F)c([C@@H](C)[C@H](NS(=O)(=O)c2ccc(Cl)c(C(=O)N3CCC(N)C3)n2)c2n[nH]c(=O)o2)c1C` (stereo partly drawn), with 150 nM.

The molecule `Cc1ccc(F)c([C@@H](C)[C@H](NS(=O)(=O)c2ccccc2C#N)c2n[nH]c(=O)o2)c1C` showed an IC50 of 640 nM. This IC50 lies about 4.3-fold higher than the previous one. With `Cc1ccc(F)c([C@@H](C)[C@H](NS(=O)(=O)c2ccc(Cl)c(C(=O)N3CCC4(CC3)COC4)n2)c2n[nH]c(=O)o2)c1C`, the IC50 stood at 80 nM. This IC50 is about 8-fold lower than that of the molecule before. `COc1cc(Cl)cnc1S(=O)(=O)N[C@H](c1n[nH]c(=O)o1)[C@H](C)c1c(F)ccc(C)c1C` showed an IC50 of 150 nM. `Cc1ccc(F)c([C@@H](C)[C@H](NS(=O)(=O)c2ccc(Cl)cc2C#N)c2n[nH]c(=O)o2)c1C` gave an IC50 of 360 nM. Then `Cc1c(Br)ccc(F)c1[C@@H](C)[C@H](NS(=O)(=O)c1ccc(Cl)cc1C(N)=O)c1n[nH]c(=O)o1`, with 150 nM; and `Cc1ccc(F)c([C@@H](C)[C@H](NS(=O)(=O)c2cccc3c2OCCC3(O)C(F)(F)F)c2n[nH]c(=O)o2)c1C` (stereo partly drawn), with 120 nM; and `Cc1ccc(F)c([C@@H](C)[C@H](NS(=O)(=O)c2ccc(Br)cc2OC(F)(F)F)c2n[nH]c(=O)o2)c1C`, with 100 nM.

For the molecule `Cc1ccc(F)c([C@@H](C)[C@H](NS(=O)(=O)c2ccc(Cl)c(S(N)(=O)=O)c2)c2n[nH]c(=O)o2)c1C`, it took 810 nM to reach half-maximal inhibition (IC50). Consider `CCc1ccc(S(=O)(=O)N[C@H](c2n[nH]c(=O)o2)[C@H](C)c2c(F)ccc(C)c2C)c(C(N)=O)c1`, for which the IC50 amounted to 130 nM.

For the molecule `C[C@H](c1cccc2c1CCCC2)[C@H](NS(=O)(=O)c1ccc(Cl)cn1)c1n[nH]c(=O)o1`, the IC50 came out at 770 nM.

In turn, `Cc1ccc(F)c([C@@H](C)[C@H](NS(=O)(=O)c2c(F)cc(Cl)cc2C(=O)O)c2n[nH]c(=O)o2)c1C` gave an IC50 of 270 nM.

`Cc1ccc(F)c([C@@H](C)[C@H](NS(=O)(=O)c2ccc(Cl)cc2C(C)O)c2n[nH]c(=O)o2)c1C` (stereo partly drawn) showed an IC50 of 380 nM. The IC50 values of the last two molecules are within 1.5-fold of each other. Take `Cc1ccc(F)c([C@@H](C)[C@H](NS(=O)(=O)c2ccc3[nH]c(=O)c(=O)[nH]c3c2)c2n[nH]c(=O)o2)c1C`: the IC50 came out at 820 nM. For `Cc1ccc(F)c([C@@H](C)[C@H](NS(=O)(=O)c2ccc([N+](=O)[O-])cc2)c2n[nH]c(=O)o2)c1C` the value was 270 nM; for `COc1cc(Cl)ccc1S(=O)(=O)N[C@H](c1n[nH]c(=O)o1)C(C)c1c(F)c(F)cc(C)c1Br` (stereo partly drawn), 420 nM. Then `Cc1ccc(F)c([C@@H](C)[C@H](NS(=O)(=O)c2cc3c(cc2C(=O)O)OCCO3)c2n[nH]c(=O)o2)c1C`, with 790 nM; and `Cc1ccc(F)c([C@@H](C)[C@H](NS(=O)(=O)c2ccc(Cl)c(C(=O)N3CCC4(CCC4)C3)n2)c2n[nH]c(=O)o2)c1C`, with 180 nM; and `Cc1ccc(F)c([C@@H](C)[C@H](NS(=O)(=O)c2ccc(Cl)cc2C(N)=S)c2n[nH]c(=O)o2)c1C`, with 50 nM. Molecule `COc1cc(Cl)ccc1S(=O)(=O)N[C@H](c1n[nH]c(=O)o1)[C@H](C)c1c(F)ccc(-c2cnn(C(F)F)c2)c1C` came in with an IC50 of 160 nM. As to `Cc1ccc(F)c([C@@H](C)[C@H](NS(=O)(=O)c2cccc3c2OCCN3)c2n[nH]c(=O)o2)c1C`, 420 nM corresponded to half-maximal inhibition (IC50). This IC50 lies about 2.6-fold higher than the previous one. `Cc1ccc(F)c([C@@H](C)[C@H](NS(=O)(=O)c2cc3c(cc2C(N)=O)OCCO3)c2n[nH]c(=O)o2)c1C`: the IC50 stood at 90 nM. Compared with the last molecule, the IC50 is about 4.7-fold lower. `Cc1c(Cl)ccc(F)c1[C@@H](C)[C@H](NS(=O)(=O)c1ccc(Cl)cc1C(N)=O)c1n[nH]c(=O)o1`: the IC50 was 250 nM. For `Cc1ccc(F)c([C@@H](C)[C@H](NS(=O)(=O)c2ccc(Cl)c3c2OCCN3CC(F)F)c2n[nH]c(=O)o2)c1C` the value was 140 nM. In the case of `Cc1ccc(F)c([C@@H](C)[C@H](NS(=O)(=O)c2ccc(Cl)c(-c3cnn(C)c3)c2)c2n[nH]c(=O)o2)c1C`, the IC50 was determined as 220 nM. In the case of `COc1cc(Cl)ccc1S(=O)(=O)N[C@H](c1n[nH]c(=O)o1)[C@H](C)c1cccc2c1CC(C)C2` (stereo partly drawn), 700 nM corresponded to half-maximal inhibition (IC50). As for `CC(=O)OC1(C(F)(F)F)CCOc2c1cccc2S(=O)(=O)N[C@H](c1n[nH]c(=O)o1)[C@H](C)c1c(F)ccc(C)c1C` (stereo partly drawn), the IC50 was found to be 270 nM. In turn, `COc1c(S(=O)(=O)N[C@H](c2n[nH]c(=O)o2)[C@H](C)c2c(F)ccc(C)c2C)ccc(Cl)c1C(C)=O` had an IC50 of 110 nM. `Cc1ccc(F)c([C@@H](C)[C@H](NS(=O)(=O)c2ccc(Cl)c3c2C(O)CCC3)c2n[nH]c(=O)o2)c1C` (stereo partly drawn): the midpoint of inhibition, the IC50, lay at 910 nM. Then `Cc1ccc(F)c([C@@H](C)[C@H](NS(=O)(=O)c2ccc(F)c3c2OCCC3=O)c2n[nH]c(=O)o2)c1C`, with 160 nM; and `Cc1ccc(F)c([C@@H](C)[C@H](NS(=O)(=O)c2ccc3c(c2)OCCO3)c2n[nH]c(=O)o2)c1C`, with 130 nM.

The molecule `COc1ccccc1-c1ccc(C(N)=O)c(S(=O)(=O)N[C@H](c2n[nH]c(=O)o2)[C@H](C)c2c(F)ccc(C)c2C)c1` showed an IC50 of 250 nM. `Cc1cccc2cccc([C@@H](C)[C@H](NS(=O)(=O)c3ccc(Cl)c4c3OCCC4(F)F)c3n[nH]c(=O)o3)c12`: half-maximal inhibition (IC50) required 280 nM. With `COc1cc(Cl)ccc1S(=O)(=O)N[C@H](c1n[nH]c(=O)o1)[C@H](C)c1c(F)ccc(-c2ccc(N3CCCCC3)nc2)c1C`, inhibition was half-maximal at 600 nM (IC50). Take `Cc1ccc(F)c([C@@H](C)[C@H](NS(=O)(=O)c2ccc(Cl)cc2OCC(F)F)c2n[nH]c(=O)o2)c1C`: the IC50 came out at 440 nM. This IC50 and that of the molecule before are within 1.5-fold of each other. `Cc1ccc(F)c([C@@H](C)[C@H](NS(=O)(=O)c2ccc(Cl)c(C#N)n2)c2n[nH]c(=O)o2)c1C` yielded an IC50 of 160 nM. This IC50 is about 2.8-fold lower than that of the molecule before. As to `Cc1ccc(F)c([C@@H](C)[C@H](NS(=O)(=O)c2ccc(Cl)cc2C(=O)O)c2n[nH]c(=O)o2)c1C`, the IC50 was found to be 180 nM. Then `CCn1cc(-c2ccc(F)c([C@@H](C)[C@H](NS(=O)(=O)c3ccc(Cl)cc3OC)c3n[nH]c(=O)o3)c2C)cn1`, with 170 nM. Molecule `Cc1ccc(S(=O)(=O)N[C@H](c2n[nH]c(=O)o2)[C@H](C)c2c(F)ccc(C)c2C)c(C(N)=O)c1` registered an IC50 of 140 nM. On to `Cc1ccc(F)c([C@@H](C)[C@H](NS(=O)(=O)c2c(F)cc(Cl)cc2C(N)=O)c2n[nH]c(=O)o2)c1C`, for which the midpoint of inhibition, the IC50, lay at 140 nM.

Consider `COc1cc(Cl)ccc1S(=O)(=O)N[C@H](c1n[nH]c(=O)o1)[C@H](C)c1c(F)ccc(-c2cncnc2)c1C`, for which it took 540 nM to reach half-maximal inhibition (IC50). Then `C[C@H](c1c(F)ccc2ccccc12)[C@H](NS(=O)(=O)c1ccc(Br)cc1C(N)=O)c1n[nH]c(=O)o1`, with 100 nM.
